Results published in US8410153B2, “Naphthalene isoxazoline invertebrate pest control agents” (E.I. du Pont de Nemours and Company, priority 2007, dated 2013).

Columns and labels:
Assay type in all cases: in vivo
[1] = tested on: diamondback moth (Plutella xylostella); experiment: Test A: control of diamondback moth on radish plant, foliar spray; settings: sprayed at 50 ppm, held 6 days
From the text: For evaluating control of diamondback moth (Plutella xylostella) the test unit consisted of a small open container with a 12-14-day-old radish plant inside. This was pre-infested with about 50 neonate larvae that were dispensed into the test unit via corncob grits using a bazooka inoculator. The larvae moved onto the test plant after being dispensed into the test unit.
(§1) Test compounds were formulated using a solution containing 10% acetone, 90% water and 300 ppm X-77™ Spreader Lo-Foam Formula non-ionic surfactant containing alkylarylpolyoxyethylene, free fatty acids, glycols and isopropanol (Loveland Industries, Inc. Greeley, Colo., USA). The formulated compounds were applied in 1 mL of liquid through a SUJ2 atomizer nozzle with ⅛ JJ custom body (Spraying Systems Co. Wheaton, Ill., USA) positioned 1.27 cm (0.5 inches) above the top of each test unit. All experimental compounds in these tests were sprayed at 50 ppm, and the test was replicated three times. After spraying of the formulated test compound, each test unit was allowed to dry for 1 h and then a black, screened cap was placed on top. The test units were held for 6 days in a growth chamber at 25° C. and 70% relative humidity. Plant feeding damage was then visually assessed based on foliage consumed, and a pest mortality rating was also counted and calculated for each test unit.

[2] = tested on: western flower thrips (Frankliniella occidentalis); experiment: Test E: control of western flower thrips on Soleil bean plant, contact and/or systemic; settings: held 6 days
Protocol: as §1
For evaluating control of the western flower thrips (Frankliniella occidentalis) through contact and/or systemic means, the test unit consisted of a small open container with a 5-7-day-old Soleil Bean plant inside. Test compounds were formulated and sprayed as described for Test A. All experimental compounds in these tests were sprayed at 250 or 50 ppm as noted, and the test was replicated three times. After spraying, the test units were allowed to dry for 1 h, 22-27 adult thrips were added to each unit and then a black, screened cap was placed on top. The test units were held for 6 days at 25° C. and 45-55% relative humidity. A mortality rating was assessed along with a plant damage rating for each test unit.

[3] = tested on: fall armyworm (Spodoptera frugiperda); experiment: Test B: control of fall armyworm on corn (maize) plant, foliar spray; settings: sprayed at 50 ppm
Protocol: as §1
For evaluating control of fall armyworm (Spodoptera frugiperda) the test unit consisted of a small open container with a 4-5-day-old corn (maize) plant inside. This was pre-infested (using a core sampler) with 10-15 1-day-old larvae on a piece of insect diet. Test compounds were formulated and sprayed at 50 ppm as described for Test A and replicated three times. After spraying, the test units were maintained in a growth chamber and then the control efficacy was rated for each test unit as described for Test A.

| Compound | levels of control efficacy (20% or less feeding damage or 80% or more mortality) [1] | levels of control efficacy (20% or less feeding damage or 80% or more mortality) ([2]; sprayed at 250 ppm) | levels of control efficacy (20% or less feeding damage or 80% or more mortality) [3] | levels of control efficacy (20% or less feeding damage or 80% or more mortality) ([2]; sprayed at 50 ppm) |
| --- | --- | --- | --- | --- |
| CC(NC(=O)c1ccc(C2=NOC(c3cc(Cl)cc(C(F)(F)F)c3)(C(F)(F)F)C2)c2ccccc12)C(=O)NCC(C)(C)C (mixture of isomers) [Compound 112] | very good to excellent | very good to excellent |  |  |
| CCCNC(=O)C(C)NC(=O)c1ccc(C2=NOC(c3cc(C(F)(F)F)cc(C(F)(F)F)c3)(C(F)(F)F)C2)c2ccccc12 (stereo not drawn) [Compound 89] |  |  | very good to excellent |  |
| CCCNC(=O)C(C)NC(=O)c1ccc(C2=NOC(c3cc(C(F)(F)F)cc(C(F)(F)F)c3)(C(F)(F)F)C2)c2ccccc12 (mixture of isomers) [Compound 84] | very good to excellent | very good to excellent |  | very good to excellent |
| CC(C)NC(=O)CNC(=O)c1ccc(C2=NOC(c3cc(F)cc(F)c3)(C(F)(F)F)C2)c2ccccc12 (stereo not drawn) [Compound 75] | very good to excellent |  |  |  |
| O=C(CNC(=O)c1ccc(C2=NOC(c3cc(F)cc(F)c3)(C(F)(F)F)C2)c2ccccc12)NCC(F)(F)F (stereo not drawn) [Compound 73] | very good to excellent | very good to excellent |  |  |
| CS(=O)(=O)CCNC(=O)c1ccc(C2=NOC(c3cc(F)cc(F)c3)(C(F)(F)F)C2)c2ccccc12 (stereo not drawn) [Compound 80] | very good to excellent | very good to excellent |  |  |
| CC(NC(=O)c1ccc(C2=NOC(c3cc(C(F)(F)F)cc(C(F)(F)F)c3)(C(F)(F)F)C2)c2ccccc12)C(=O)NCC(F)(F)F (mixture of isomers) [Compound 94] | very good to excellent |  |  |  |
| CC(C)C(NC(=O)c1ccc(C2=NOC(c3cc(Cl)cc(Cl)c3)(C(F)(F)F)C2)c2ccccc12)C(=O)NCC(F)(F)F (mixture of isomers) [Compound 2] | very good to excellent |  |  |  |
| CNC(=O)C(C)NC(=O)c1ccc(C2=NOC(c3cc(Cl)cc(C(F)(F)F)c3)(C(F)(F)F)C2)c2ccccc12 (mixture of isomers) [Compound 109] | very good to excellent | very good to excellent |  | very good to excellent |
| CC(C)CNC(=O)C(C)NC(=O)c1ccc(C2=NOC(c3cc(Cl)cc(C(F)(F)F)c3)(C(F)(F)F)C2)c2ccccc12 (mixture of isomers) [Compound 111] | very good to excellent | very good to excellent |  | very good to excellent |
| O=C(CCNC(=O)c1ccc(C2=NOC(c3cc(Cl)cc(Cl)c3)(C(F)(F)F)C2)c2ccccc12)NCC(F)(F)F (stereo not drawn) [Compound 9] | very good to excellent |  |  |  |
| CC(NC(=O)c1ccc(C2=NOC(c3cc(C(F)(F)F)cc(C(F)(F)F)c3)(C(F)(F)F)C2)c2ccccc12)C(=O)NCC(C)(C)C (mixture of isomers) [Compound 97] |  |  |  | very good to excellent |
| CC(NC(=O)CNC(=O)c1ccc(C2=NOC(c3cc(C(F)(F)F)cc(C(F)(F)F)c3)(C(F)(F)F)C2)c2ccccc12)C(F)(F)F (mixture of isomers) [Compound 104] | very good to excellent |  |  |  |
| CC(NC(=O)c1ccc(C2=NOC(c3cc(Cl)cc(C(F)(F)F)c3)(C(F)(F)F)C2)c2ccccc12)C(=O)NCC(F)(F)F (mixture of isomers) [Compound 106] | very good to excellent | very good to excellent |  | very good to excellent |
| CCCNC(=O)C(C)NC(=O)c1ccc(C2=NOC(c3cc(Cl)cc(C(F)(F)F)c3)(C(F)(F)F)C2)c2ccccc12 (mixture of isomers) [Compound 129] |  |  | very good to excellent |  |
| CC(C)(CO)CNC(=O)c1ccc(C2=NOC(c3cccc(C(F)(F)F)c3)(C(F)(F)F)C2)c2ccccc12 (stereo not drawn) [Compound 61] | very good to excellent |  |  |  |
| CC(NC(=O)c1ccc(C2=NOC(c3cc(Cl)cc(C(F)(F)F)c3)(C(F)(F)F)C2)c2ccccc12)C(=O)NCC(C)(C)C (mixture of isomers) [Compound 131] | very good to excellent | very good to excellent |  |  |
| CC(O)CCNC(=O)c1ccc(C2=NOC(c3cccc(C(F)(F)F)c3)(C(F)(F)F)C2)c2ccccc12 (mixture of isomers) [Compound 44] | very good to excellent | very good to excellent |  | very good to excellent |
| CSCCNC(=O)c1ccc(C2=NOC(c3cc(F)cc(F)c3)(C(F)(F)F)C2)c2ccccc12 (stereo not drawn) [Compound 77] | very good to excellent | very good to excellent |  |  |
| O=C(CNC(=O)c1ccc(C2=NOC(c3cccc(F)c3)(C(F)(F)F)C2)c2ccccc12)NCC(F)(F)F (stereo not drawn) [Compound 74] | very good to excellent |  |  |  |
| CC(C)NC(=O)C(C)NC(=O)c1ccc(C2=NOC(c3cc(Cl)cc(C(F)(F)F)c3)(C(F)(F)F)C2)c2ccccc12 (mixture of isomers) [Compound 107] | very good to excellent | very good to excellent |  | very good to excellent |
| CCNC(=O)C(C)NC(=O)c1ccc(C2=NOC(c3cc(Cl)cc(C(F)(F)F)c3)(C(F)(F)F)C2)c2ccccc12 (mixture of isomers) [Compound 110] | very good to excellent | very good to excellent |  | very good to excellent |
| CSCCNC(=O)c1ccc(C2=NOC(c3cccc(F)c3)(C(F)(F)F)C2)c2ccccc12 (stereo not drawn) [Compound 78] | very good to excellent |  |  |  |
| CC(C)(C)SCCNC(=O)c1ccc(C2=NOC(c3cccc(C(F)(F)F)c3)(C(F)(F)F)C2)c2ccccc12 (racemic) [Compound 57] | very good to excellent |  |  |  |
| CC(C)(CO)NC(=O)c1ccc(C2=NOC(c3cc(Cl)cc(Cl)c3)(C(F)(F)F)C2)c2ccccc12 (racemic) [Compound 32] | very good to excellent | very good to excellent |  | very good to excellent |
| CCCNC(=O)C(C)NC(=O)c1ccc(C2=NOC(c3cc(Cl)cc(C(F)(F)F)c3)(C(F)(F)F)C2)c2ccccc12 (mixture of isomers) [Compound 108] | very good to excellent | very good to excellent |  | very good to excellent |
| O=C(NCCCO)c1ccc(C2=NOC(c3cccc(C(F)(F)F)c3)(C(F)(F)F)C2)c2ccccc12 (racemic) [Compound 42] | very good to excellent | very good to excellent |  | very good to excellent |
| CC(C)NC(=O)CNC(=O)c1ccc(C2=NOC(c3cccc(F)c3)(C(F)(F)F)C2)c2ccccc12 (stereo not drawn) [Compound 76] | very good to excellent |  |  |  |
| CNC(=O)C(C)NC(=O)c1ccc(C2=NOC(c3cc(C(F)(F)F)cc(C(F)(F)F)c3)(C(F)(F)F)C2)c2ccccc12 (mixture of isomers) [Compound 95] | very good to excellent |  |  |  |
